Test results reported in patent US20120316210A1, “TOPICAL ANTIPARASITIC FORMULATIONS” (priority 2010, published 2012).
Read-outs that look alike come from different tables or passages of the source.

Tests used:
[1] = pKa of demiditraz; type: physicochemical; conditions: weak base
Experimental: (§1) […] is also a weak base due to the presence of the imidazole ring. […] An acid modifier (or mixtures thereof) was added to the formulation in a molar equivalent relative to the amount of demiditraz to adjust the pH below 7.5 and reduce or eliminate the nucleophilic reaction between fipronil and demiditraz. The acid modifier includes both weak and strong acids. The weak acids include sugar acids (glyceric, gluconic, ascorbic, tartaric, and the like), carboxylic acid derivatives (mono-, di-, and tri-chloro acetic acid, and mono-, di-, and tri-fluoro acetic acid, benzoic, and the like) and mono-, di-, and tri-carboxylic acids. Non-exclusive examples of monocarboxylic acids include formic, acetic, propionic, butyric, oleic, valeric, caproic, enanthic, caprylic, linoleic, chloroacetic, dichloroacetic, oxalic, benzoic, pelargonic, capric, lauric, myristic, palmitic, stearic, and arachidic acid. Non-exclusive examples of di-carboxylic acids include oxalic, malonic, succinic, fumaric, aldaric, tartaric, glutaric, adipic, maleic, malic, pimelic, suberic, azelaic, sebacic, phthalic, isophtalic, and terephthalic acid. Non-exclusive examples of tri-carboxylic acids include citric, isocitric, aconitic, propane-1,2,3-tricarboxylic, and trimesic acid.

[2] = type: physicochemical
Experimental: as §1
The addition of the weak acid in the formulation lowered the apparent pH of the formulation to about 6.5 to 7.5, however, fipronil degraded initially by about 5-6% followed by slower degradation to about 10-15% during an accelerated (70°) kinetic study. Strong acids (pka≦2) were added to the formulation to both lower apparent pH to about 2.5 to about 3.5 and to protonate demiditraz to prevent it from potentially acting as a nucleophile against fipronil. Non-exclusive examples of strong acids include inorganic acids (e.g., HCl, HBr, HI, HF, nitric acid, phosphoric acid, boric acid, sulfuric acid, and the like). Other strong acids include sulfonic acid and sulfonic acid derivatives thereof. Non-exclusive examples of sulfonic acid derivatives include methane-, ethane-, p-toluenesulfonic (p-TSA), and dodecylbenzenesulfonic acid. The use of a strong acid, e.g., p-TSA, increased fipronil stability, however, degradation was still about 5% after 12 weeks at 50° C.
The initial instability of fipronil was reduced to about ≦1% during an accelerated (70° C.) 1-week stability study for DPGMME with a strong acid and for NMP with a strong or weak acid.

[3] = type: physicochemical; remark: listed apart in the source
Experimental: as §1

`Cc1cccc([C@H](C)c2ncc[nH]2)c1C` [Demiditraz, demiditraz] showed a pKa [1] of 7.2.
For `N#Cc1nn(-c2c(Cl)cc(C(F)(F)F)cc2Cl)c(N)c1[S+]([O-])C(F)(F)F` (centres unmarked) [fipronil], the Fipronil initial degradation [2] was 5-6%, the “Fipronil slower degradation following the initial one” value [2] was 10-15% and the “Fipronil stability when formulated with demiditraz” value [2] was “unstable”. For the same molecule, the Fipronil degradation ([2]; 1 week) was 3-6%, the “Initial instability of fipronil” value ([2]; 1 week) was at most 1% and the Fipronil degradation ([2]; 12 weeks) was “about 5%”. The “pH levels at which fipronil degrades rapidly” value [3] was “above 7.5”.
